Data on one molecule can be found in ChEMBL document CHEMBL3886358, “Quinolyl-containing hydroxamic acid compound and preparation method thereof, and pharmaceutical composition containing this compound and use thereof” (2015).

The IC50 is the concentration needed to halve the response being measured. Read a low IC50 as inhibition by little substance.

Assay [1] deals with Proto-oncogene tyrosine-protein kinase Src (Homo sapiens, UniProt P12931). Description: (§1) Sci. USA 1988, 85(23), 9312). Specific steps were as follows: The compound of the present invention was dissolved in dimethyl sulfoxide (DMSO) to make a stock solution of 2 mM, then the stock solution was diluted with DMSO following a 7 half-log series to concentrations ranging from 2 uM to 600 pM. Format: cell-based.

Assay [2] deals with T1, Receptor-type tyrosine-protein kinase FLT3 (Homo sapiens, UniProt P36888).
T1 sequence (P36888 whole entry): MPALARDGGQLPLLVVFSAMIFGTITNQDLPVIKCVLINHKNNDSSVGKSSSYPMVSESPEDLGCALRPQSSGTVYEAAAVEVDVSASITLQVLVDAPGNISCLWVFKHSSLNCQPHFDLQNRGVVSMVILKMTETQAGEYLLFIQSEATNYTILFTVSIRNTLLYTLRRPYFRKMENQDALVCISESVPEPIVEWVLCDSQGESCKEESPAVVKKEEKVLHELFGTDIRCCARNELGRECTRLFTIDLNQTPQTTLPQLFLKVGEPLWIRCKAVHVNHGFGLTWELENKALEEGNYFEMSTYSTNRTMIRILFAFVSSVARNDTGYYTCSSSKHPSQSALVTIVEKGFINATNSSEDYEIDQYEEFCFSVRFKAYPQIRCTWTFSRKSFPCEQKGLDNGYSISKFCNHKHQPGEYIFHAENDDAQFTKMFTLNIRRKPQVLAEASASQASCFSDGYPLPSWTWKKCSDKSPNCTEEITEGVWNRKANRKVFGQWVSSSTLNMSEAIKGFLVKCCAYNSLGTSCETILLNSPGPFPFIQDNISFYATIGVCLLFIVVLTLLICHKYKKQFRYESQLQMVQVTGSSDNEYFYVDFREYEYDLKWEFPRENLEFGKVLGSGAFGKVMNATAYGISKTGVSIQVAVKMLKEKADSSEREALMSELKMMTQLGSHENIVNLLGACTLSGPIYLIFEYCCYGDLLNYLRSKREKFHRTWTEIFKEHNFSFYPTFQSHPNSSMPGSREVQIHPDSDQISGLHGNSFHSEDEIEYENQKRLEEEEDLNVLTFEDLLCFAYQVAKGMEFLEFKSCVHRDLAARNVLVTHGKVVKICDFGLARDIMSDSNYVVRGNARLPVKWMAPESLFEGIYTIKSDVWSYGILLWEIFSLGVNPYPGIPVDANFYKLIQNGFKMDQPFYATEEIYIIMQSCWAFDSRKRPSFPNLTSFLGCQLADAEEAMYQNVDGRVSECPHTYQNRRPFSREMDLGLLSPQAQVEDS
The description is as §1. The assay is classed as cell-based.

Proto-oncogene tyrosine-protein kinase Src, sequence (P12931 2-536 limits assumed): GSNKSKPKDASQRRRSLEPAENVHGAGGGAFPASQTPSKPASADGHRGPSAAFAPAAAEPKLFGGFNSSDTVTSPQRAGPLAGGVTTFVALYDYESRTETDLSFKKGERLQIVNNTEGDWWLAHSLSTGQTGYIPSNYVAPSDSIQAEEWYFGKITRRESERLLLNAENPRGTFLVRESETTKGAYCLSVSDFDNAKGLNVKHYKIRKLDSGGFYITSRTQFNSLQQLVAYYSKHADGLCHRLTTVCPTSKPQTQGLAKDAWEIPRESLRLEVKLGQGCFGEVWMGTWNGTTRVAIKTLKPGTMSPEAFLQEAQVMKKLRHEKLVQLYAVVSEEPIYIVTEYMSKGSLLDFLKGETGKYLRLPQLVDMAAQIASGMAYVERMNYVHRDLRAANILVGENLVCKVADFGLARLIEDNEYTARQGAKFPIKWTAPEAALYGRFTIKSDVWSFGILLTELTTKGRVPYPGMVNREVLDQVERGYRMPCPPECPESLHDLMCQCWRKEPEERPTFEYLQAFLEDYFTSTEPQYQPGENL

With `COc1cc2c(Oc3ccc(NC(=O)C4(C(=O)Nc5ccc(F)cc5)CC4)cc3F)ccnc2cc1OCCCC(=O)NO`, the concentration for half-maximal inhibition (IC50) in assay [1] is above 630 nM; in assay [2], 31 nM.
